Measurements reported in paper PMC11769294, “(E)-1-(3-(3-Hydroxy-4-Methoxyphenyl)-1-(3,4,5-Trimethoxyphenyl)allyl)-1H-1,2,4-Triazole and Related Compounds: Their Synthesis and Biological Evaluation as Novel Antimitotic Agents Targeting Breast Cancer” (Pharmaceuticals, 2025).

What was measured:
HL-60 cells = experiment: alamarBlue cell viability assay; format: cell-based; conditions: Homo sapiens
Method: Figure 7 Preliminary cell viability data for (A) triazoles 22b–d, 22f, 22g and imidazole 23d and (B) triazoles 26a–e and imidazoles 27a, 27b, 27e, 27f, 27h and 27i in HL-60 cells. Cell proliferation of HL-60 cells was determined with an alamarBlue assay (seeding density 2.5 × 10^4 cells/mL per well for 96-well plates). Compound concentrations of either 1 or 0.1 μM for 72 h were used to treat the cells (in triplicate) with control wells containing vehicle ethanol (1% v/v). The mean value ± SEM for three independent experiments is shown. The positive control was CA-4 (1.0 μM and 0.1 μM).
HL-60 cells were suspension cells and the seeding density for the viability assay was 25,000 cells/mL. […]
The biochemical assays were performed in triplicate and on at least three independent occasions to facilitate the determination of mean values. […] Adherent cells such as MCF-7, MDA-MB-231, and MCF-10A were trypsinized to detach them from the flask, counted as previously described, and seeded in 96 well plates with a seeding density of 25,000 cells /mL (200 µL of suspension in each well so that the final number of cells per well was 5000) and 1 × 10^4 cells/well seeding density for suspension HL-60 cells. […] After 72 h, the change in color was measured by spectrofluorimetry at an excitation wavelength of 544 nm and emission wavelength of 590 nm. […]

[1] = test system: purified bovine brain tubulin; experiment: Tubulin polymerization assay; format: biochemical; conditions: after 60 min
Method: The triazole 22b was selected for evaluation in the tubulin polymerization assay. Following the protocol previously described, the polymerization of purified bovine tubulin was monitored using a tubulin polymerization assay kit, BK006, (Cytoskeleton Inc., Denver, CO, USA). The assay was carried out using the purified bovine brain tubulin. Tubulin polymerization was determined spectrophotometrically by monitoring the change in turbidity since light is scattered proportionally to the concentration of polymerized microtubules in the assay. Lyophilized tubulin [128] (Cytoskeleton, Denver, CO, USA) (>99%, 3 mg/mL) was re-suspended in ice-cold G-PEM buffer (80 mM PIPES pH 6.9, […], 1 mM EGTA, 1 mM GTP, 10.2% (v/v) glycerol) and added to wells on a half volume 96-well plate containing the designated concentration of drug (10 or 30 μM). […] Samples were mixed well and the tubulin assembly was monitored at 340 nm at 30 s intervals for 60 min at 37 °C in a Spectramax 340PC spectrophotometer (Molecular Devices, San Jose, CA, USA).
Figure 13 Inhibition of tubulin polymerization in vitro by compound 22b. […] The progress of the tubulin polymerization reaction at 37 °C was monitored at 340 nm in a Spectramax 340PC spectrophotometer at 30 s intervals for 60 min. Fold inhibition of tubulin polymerization can be calculated from the Vmax value for each reaction. […]

CYP19 (aromatase) = CYP19 (aromatase) (Homo sapiens, UniProt P11511); experiment: Cytochrome P450 assay (DBF fluorescence); conditions: read-out: inhibition of CYP19
Sequence of CYP19 (aromatase) (P11511 whole entry): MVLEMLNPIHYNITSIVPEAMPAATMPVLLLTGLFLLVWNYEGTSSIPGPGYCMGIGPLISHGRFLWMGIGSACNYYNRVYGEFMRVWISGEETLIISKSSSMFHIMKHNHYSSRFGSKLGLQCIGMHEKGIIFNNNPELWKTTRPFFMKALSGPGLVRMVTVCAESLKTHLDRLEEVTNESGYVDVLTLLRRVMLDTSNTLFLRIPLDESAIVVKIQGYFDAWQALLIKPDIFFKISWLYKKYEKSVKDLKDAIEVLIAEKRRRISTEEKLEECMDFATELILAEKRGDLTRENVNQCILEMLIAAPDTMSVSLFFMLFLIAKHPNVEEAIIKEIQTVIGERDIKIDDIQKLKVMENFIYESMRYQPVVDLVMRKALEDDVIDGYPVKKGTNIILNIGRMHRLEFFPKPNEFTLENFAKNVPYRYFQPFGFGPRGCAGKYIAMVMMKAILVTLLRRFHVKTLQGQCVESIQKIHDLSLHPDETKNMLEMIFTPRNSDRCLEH

## COc1ccc(/C=C/C(c2cc(OC)c(OC)c(OC)c2)n2cncn2)cc1O (centres unmarked) [Compound 22b, (E)-5-(3-(1H-1,2,4-Triazol-1-yl)-3-(3,4,5-trimethoxyphenyl)prop-1-en-1-yl)-2-methoxyphenol]
HL-60 cells
  IC50: 370 nM
HL-60 cells; 72 h
  IC50: 366 ± 130 nM
[1]; 10 μM
  reduction in the polymer mass vs vehicle: 1.5 fold
[1]; 30 μM
  reduction in the polymer mass vs vehicle: 5 fold
CYP19 (aromatase)
  inhibition at 50 µM: 93%
